Results as given in patent publication US7795315B2, “N-(2-amino-phenyl)-amide derivatives” (Hoffman-La Roche Inc., priority 2008, dated 2010).
One block for each compound: values may come before it.

What was measured:
Format in all cases: cell-based
[1] = system: klf2 promoter-luciferase construct in A204 cells; test: klf2 reporter gene induction (p21 versus klf2 selectivity); conditions: SNDX-275 p21/klf2 ratio defined as 1.0; for p21/klf2 (RP3): relative selectivity compared with SNDX-275: 3 micromolar; for p21/klf2 (RP10): relative selectivity compared with SNDX-275: 10 micromolar
Description: (§1) The novel compounds of the present invention were tested for their ability to induce p21 gene expression using a reporter gene assay involving HeLa cells transfected with a p21 promoter-luciferase construct. The p21 promoter contained the Sp1/Sp3 binding site for HDAC but not the upstream p53 binding site. Briefly, the day before transfection, HeLa cells were seeded at 11,000 cells/well in a 96-well culture plate and incubated at 37 degrees Celsius in 5% CO2 overnight. For transfection, the medium was removed and replaced with 100 microliters/well transfection media previously prepared as follows: 5 microliters serum-free DMEM, 0.15 microliters Fugene 6 reagent, 40 ng p21-luc, 10 ng GFP were mixed gently and incubated at room temperature for 30 minutes; then 98 microliters DMEM (with 10% FBS, 1% penicillin and streptomycin) was added to the DNA:Fugene 6 reagent complex and mixed gently. After incubating the cells for 24 hours at 37 degrees Celsius in 5% CO2, fresh media and test compounds were added to the wells and the cells further incubated for 15 hours at 37 degrees Celsius in 5% CO2. Cells were lysed by adding 80 microliters/well of a cell culture lysis reagent (Promega). 50 microliters of each lysate was taken for GFP detection using an excitation wavelength of 486 nm and detection at 527 nm. 100 microliters Luciferase assay reagent (Promega) was then added to every 20 microliters cell lysate for luminometer detection. […] Induction activity for specific representative compounds can be found in Table 4.
The novel compounds of the present invention were tested for their ability to induce klf2 gene expression using a reporter gene assay involving A204 cells transfected with a klf2 promoter-luciferase construct. The klf2 promoter contained the MEF2 binding site for HDAC3/class IIa HDAC complex. Briefly, the day before transfection, A204 cells were seeded at 11,000 cells/well in a 96-well culture plate and incubated at 37 degrees Celsius in 5% CO2 overnight. For transfection, the medium was removed and replaced with 100 microliters/well transfection media previously prepared as follows: 5 microliters serum-free DMEM, 0.15 microliters Fugene 6 reagent, 40 ng klf2-luc, 10 ng GFP were mixed gently and incubated at room temperature for 30 minutes; then 98 microliters DMEM (with 10% FBS, 1% penicillin and streptomycin) was added to the DNA:Fugene 6 reagent complex and mixed gently. After incubating the cells for 24 hours at 37 degrees Celsius in 5% CO2, fresh media and test compounds were added to the wells and the cells further incubated for 15 hours at 37 degrees Celsius in 5% CO2. Finally, 10 ng/ml TNF-α was added and the cells further incubated for 4 hours. Cells were lysed by adding 80 microliters/well of a cell culture lysis reagent (Promega). 50 microliters of each lysate was taken for GFP detection using an excitation wavelength of 486 nm and detection at 527 nm. 100 microliters Luciferase assay reagent (Promega) was then added to every 20 microliters cell lysate for luminometer detection.

[2] = system: HCT-116 colon cancer cells; test: Antiproliferative activity, growth inhibition (MTS/WST assay); conditions: Homo sapiens, 72 hour growth inhibition, read-out: GI50 HCT116
Description: The novel compounds of the present invention were tested for their ability to inhibit growth of various cancer cell lines (HeLa, MCF7, U2OS, HepG2, HL60, HCT-116) using in vitro growth inhibition assays described below.
Cells were seeded in 96-well culture plates (200 microliters/well at different seeding concentrations depending on cell type) and incubated overnight at 37 degrees Celsius in 5% CO2. After adding compound dilutions to the cells (DMSO concentration kept below 0.5%), the cells were incubated at 37 degrees Celsius in 5% CO2 for 72 hours. The effects on proliferation were determined by addition of MTS reagent (Promega) according to the manufacturer's instruction, followed by incubation for 2 hours at 37 degrees Celsius in 5% CO2, and finally recording the absorbance at 490 nm using an ELISA plate reader.
Similar to MTS assay except that the developer is the CCK-8 reagent (Dojindo) and the plate reader is set to 450 nm absorbance.
GI50 values against HCT-116 colon cancer cells for specific representative compounds can be found in Table 4.

[3] = system: p21 promoter-luciferase construct in HeLa cells; test: p21 reporter gene induction; conditions: 3 micromolar, 15 hours, relative to SNDX-275
Description: as §1

Structure (SMILES): Nc1ccccc1NC(=O)/C=C/c1ccc(C(NCCN2CCOCC2)C(=O)Nc2ccc(C(F)(F)F)c(F)c2)cc1 (stereo not drawn) [Example 4-36, (E)-N-(2-Amino-phenyl)-3-{4-[(3-fluoro-4-trifluoromethyl-phenylcarbamoyl)-(2-morpholin-4-yl-ethylamino)-methyl]-phenyl}-acrylamide]
- p21/klf2 (RP3): relative selectivity compared with SNDX-275 [1]: 0.7
- p21/klf2 (RP10): relative selectivity compared with SNDX-275 [1]: 3.1
- GI50 [2]: 2 µM
- p21 (RP3): relative induction potency compared with SNDX-275 [3]: 43%

Structure (SMILES): Nc1ccccc1NC(=O)/C=C/c1ccc(C(NCCCN2CCOCC2)C(=O)Nc2ccc(C3CC3)cc2)cc1 (stereo not drawn) [Example 4-41, (E)-N-(2-Amino-phenyl)-3-{4-[(4-cyclopropyl-phenylcarbamoyl)-(3-morpholin-4-yl-propylamino)-methyl]-phenyl}-acrylamide]
- p21/klf2 (RP3): relative selectivity compared with SNDX-275 [1]: 3.5
- p21/klf2 (RP10): relative selectivity compared with SNDX-275 [1]: 2.1
- GI50 [2]: 1.4 µM
- p21 (RP3): relative induction potency compared with SNDX-275 [3]: 156%

Structure (SMILES): CN(C)CCNC(C(=O)Nc1ccc(C(F)(F)F)c(F)c1)c1ccc(/C=C/C(=O)Nc2ccccc2N)cc1 (stereo not drawn) [Example 4-49, (E)-N-(2-Amino-phenyl)-3-{4-[(2-dimethylamino-ethylamino)-(3-fluoro-4-trifluoromethyl-phenylcarbamoyl)-methyl]-phenyl}-acrylamide]
- p21/klf2 (RP3): relative selectivity compared with SNDX-275 [1]: 1.5
- p21/klf2 (RP10): relative selectivity compared with SNDX-275 [1]: 1.5
- GI50 [2]: 1.4 µM
- p21 (RP3): relative induction potency compared with SNDX-275 [3]: 128%

Structure (SMILES): CN(C)CCNC(C(=O)Nc1ccc(C(F)(F)F)cc1F)c1ccc(/C=C/C(=O)Nc2ccccc2N)cc1 (stereo not drawn) [Example 4-24, (E)-N-(2-Amino-phenyl)-3-{4-[(2-dimethylamino-ethylamino)-(2-fluoro-4-trifluoromethyl-phenylcarbamoyl)-methyl]-phenyl}-acrylamide]
- p21/klf2 (RP3): relative selectivity compared with SNDX-275 [1]: 1.5
- p21/klf2 (RP10): relative selectivity compared with SNDX-275 [1]: 1.5
- GI50 [2]: 2.1 µM
- p21 (RP3): relative induction potency compared with SNDX-275 [3]: 162%

Structure (SMILES): Nc1ccccc1NC(=O)/C=C/c1ccc(C(NCCCN2CCOCC2)C(=O)Nc2ccc(C(F)(F)F)cc2)cc1 (stereo not drawn) [Example 4-5, (E)-N-(2-Amino-phenyl)-3-{4-[(3-morpholin-4-yl-propylamino)-(4-trifluoromethyl-phenylcarbamoyl)-methyl]-phenyl}-acrylamide]
- p21/klf2 (RP3): relative selectivity compared with SNDX-275 [1]: 1.2
- p21/klf2 (RP10): relative selectivity compared with SNDX-275 [1]: 4.5
- GI50 [2]: 0.8 µM
- p21 (RP3): relative induction potency compared with SNDX-275 [3]: 241%

Structure (SMILES): Nc1ccccc1NC(=O)/C=C/c1ccc(C(NCCN2CCOCC2)C(=O)Nc2ccc(C3CC3)cc2)cc1 (stereo not drawn) [Example 4-47, (E)-N-(2-Amino-phenyl)-3-{4-[(4-cyclopropyl-phenylcarbamoyl)-(2-morpholin-4-yl-ethylamino)-methyl]-phenyl}-acrylamide]
- p21/klf2 (RP3): relative selectivity compared with SNDX-275 [1]: 1.0
- p21/klf2 (RP10): relative selectivity compared with SNDX-275 [1]: 1.8
- GI50 [2]: 0.9 µM
- p21 (RP3): relative induction potency compared with SNDX-275 [3]: 79%

Structure (SMILES): Nc1ccccc1NC(=O)/C=C/c1ccc(C(NCCN2CCCCC2)C(=O)Nc2ccc(C(F)(F)F)cc2F)cc1 (stereo not drawn) [Example 4-35, (E)-N-(2-Amino-phenyl)-3-{4-[(2-fluoro-4-trifluoromethyl-phenylcarbamoyl)-(2-piperidin-1-yl-ethylamino)-methyl]-phenyl}-acrylamide]
- p21/klf2 (RP3): relative selectivity compared with SNDX-275 [1]: 2.0
- p21/klf2 (RP10): relative selectivity compared with SNDX-275 [1]: 3.0
- GI50 [2]: 1.3 µM
- p21 (RP3): relative induction potency compared with SNDX-275 [3]: 140%

Structure (SMILES): Nc1ccccc1NC(=O)/C=C/c1ccc(C(OCCN2CCOCC2)C(=O)Nc2ccc(C(F)(F)F)cc2)cc1 (stereo not drawn) [Example 19, (E)-N-(2-Amino-phenyl)-3-{4-[(2-morpholin-4-yl-ethoxy)-(4-trifluoromethyl-phenylcarbamoyl)-methyl]-phenyl}-acrylamide]
- p21/klf2 (RP3): relative selectivity compared with SNDX-275 [1]: 1.6
- p21/klf2 (RP10): relative selectivity compared with SNDX-275 [1]: 3.6
- GI50 [2]: 2.2 µM
- p21 (RP3): relative induction potency compared with SNDX-275 [3]: 98%

Now from value to compound, other results behind:

- GI50 [2]: 0.9 µM
Structure (SMILES): Nc1ccccc1NC(=O)/C=C/c1ccc(C(C(=O)Nc2ccc(C(F)(F)F)cc2)N2CCCC2)cc1 (stereo not drawn) [Example 9-11, (E)-N-(2-Amino-phenyl)-3-{4-[pyrrolidin-1-yl-(4-trifluoromethyl-phenylcarbamoyl)-methyl]-phenyl}-acrylamide]
- p21/klf2 (RP3): relative selectivity compared with SNDX-275 [1]: 1.1
- p21/klf2 (RP10): relative selectivity compared with SNDX-275 [1]: 2.7
- p21 (RP3): relative induction potency compared with SNDX-275 [3]: 97%

- GI50 [2]: 2.7 µM
Structure (SMILES): CN(C)C(C(=O)Nc1ccc(C(F)(F)F)cc1)c1ccc(/C=C/C(=O)Nc2ccccc2N)cc1 (stereo not drawn) [Example 9-6, (E)-N-(2-Amino-phenyl)-3-{4-[dimethylamino-(4-trifluoromethyl-phenylcarbamoyl)-methyl]-phenyl}-acrylamide]
- p21/klf2 (RP3): relative selectivity compared with SNDX-275 [1]: 0.9
- p21/klf2 (RP10): relative selectivity compared with SNDX-275 [1]: 1.7
- p21 (RP3): relative induction potency compared with SNDX-275 [3]: 47%

- GI50 [2]: 1 µM
Structure (SMILES): Nc1ccccc1NC(=O)/C=C/c1ccc(C(NCCN2CCOCC2)C(=O)Nc2ccc(Br)cc2)cc1 (stereo not drawn) [Example 9-1, (E)-N-(2-Amino-phenyl)-3-{4-[(4-bromo-phenylcarbamoyl)-(2-morpholin-4-yl-ethylamino)-methyl]-phenyl}-acrylamide]
- p21/klf2 (RP3): relative selectivity compared with SNDX-275 [1]: 1.0
- p21/klf2 (RP10): relative selectivity compared with SNDX-275 [1]: 2.2
- p21 (RP3): relative induction potency compared with SNDX-275 [3]: 144%

- GI50 [2]: 0.9 µM
Structure (SMILES): Nc1ccccc1NC(=O)/C=C/c1ccc(C(NCCN2CCOCC2)C(=O)Nc2ccc(Cl)cc2)cc1 (stereo not drawn) [Example 30-33, (E)-N-(2-Amino-phenyl)-3-{4-[(4-chloro-phenylcarbamoyl)-(2-morpholin-4-yl-ethylamino)-methyl]-phenyl}-acrylamide]
- p21/klf2 (RP3): relative selectivity compared with SNDX-275 [1]: 2.1
- p21/klf2 (RP10): relative selectivity compared with SNDX-275 [1]: 1.2
- p21 (RP3): relative induction potency compared with SNDX-275 [3]: 193%

- GI50 [2]: 1.1 µM
Structure (SMILES): Nc1ccccc1NC(=O)/C=C/c1ccc(C(C(=O)Nc2ccc(C(F)(F)F)cc2)N2CCOCC2)cc1 (stereo not drawn) [Example 9-10, (E)-N-(2-Amino-phenyl)-3-{4-[morpholin-4-yl-(4-trifluoromethyl-phenylcarbamoyl)-methyl]-phenyl}-acrylamide]
- p21/klf2 (RP3): relative selectivity compared with SNDX-275 [1]: 1.0
- p21/klf2 (RP10): relative selectivity compared with SNDX-275 [1]: 1.6
- p21 (RP3): relative induction potency compared with SNDX-275 [3]: 80%

- GI50 [2]: 2.5 µM
Structure (SMILES): Nc1ccccc1NC(=O)/C=C/c1ccc(C(C(=O)Nc2ccc(C(F)(F)F)cc2)N2CCNCC2)cc1 (stereo not drawn) [Example 9-7, (E)-N-(2-Amino-phenyl)-3-{4-[piperazin-1-yl-(4-trifluoromethyl-phenylcarbamoyl)-methyl]-phenyl}-acrylamide]
- p21/klf2 (RP3): relative selectivity compared with SNDX-275 [1]: 0.5
- p21/klf2 (RP10): relative selectivity compared with SNDX-275 [1]: 2.1
- p21 (RP3): relative induction potency compared with SNDX-275 [3]: 54%

- GI50 [2]: 1 µM
Structure (SMILES): Nc1ccccc1NC(=O)/C=C/c1ccc(C(NCCC2CCOCC2)C(=O)Nc2ccc(C(F)(F)F)cc2)cc1 (stereo not drawn) [Example 9-18, (E)-N-(2-Amino-phenyl)-3-{4-[[2-(tetrahydro-pyran-4-yl)-ethylamino]-(4-trifluoromethyl-phenylcarbamoyl)-methyl]-phenyl}-acrylamide]
- p21/klf2 (RP3): relative selectivity compared with SNDX-275 [1]: 1.0
- p21/klf2 (RP10): relative selectivity compared with SNDX-275 [1]: 1.7
- p21 (RP3): relative induction potency compared with SNDX-275 [3]: 70%
